Source: US20220396673A1, “METHOD FOR HYDRATING WATER-INSOLUBLE POLYMER CAPABLE OF CONTAINING INTERMEDIATE WATER” (KYUSHU UNIVERSITY, NATIONAL UNIVERSITY CORPORATION, priority 2019, published 2022)

Experiment: Incorporation of fat-soluble drug into white turbid aggregate containing PMEA
Details: diluted in PBS, 37° C., fluorescence microscopy after 3 days
Description: The dialysis was carried out for 3 days while changing the purified water until the coloring of the external solvent by the elution of DOX was sufficiently removed.
In addition, the white turbid aggregate was diluted in PBS, allowed to stand in an incubator at 37° C., and then the doxorubicin content was confirmed by fluorescence microscopy (after 3 days).

doxorubicin content of the aggregate after storage: confirmed
Structure (SMILES): COc1cccc2c1C(=O)c1c(O)c3c(c(O)c1C2=O)C[C@@](O)(C(=O)CO)C[C@@H]3O[C@H]1C[C@H](N)[C@H](O)[C@H](C)O1 [doxorubicin]
